By Ki is commonly meant the equilibrium dissociation constant of an inhibitor or competing ligand from its target. High values mean a looser hold on the target, low ones a stronger hold on the target.

The record followed here is BindingDB's records for PubMed 11714872 (Astrazeneca R&D, 2001).

In test [1] the target is 5-hydroxytryptamine receptor 7 (Rattus norvegicus, UniProt P32305).
In test [2] the target is 5-hydroxytryptamine receptor 2A (Rattus norvegicus, UniProt P14842).
Test [3] deals with Sodium-dependent serotonin transporter (Rattus norvegicus, UniProt P31652).
Sequence of Sodium-dependent serotonin transporter (P31652 whole entry): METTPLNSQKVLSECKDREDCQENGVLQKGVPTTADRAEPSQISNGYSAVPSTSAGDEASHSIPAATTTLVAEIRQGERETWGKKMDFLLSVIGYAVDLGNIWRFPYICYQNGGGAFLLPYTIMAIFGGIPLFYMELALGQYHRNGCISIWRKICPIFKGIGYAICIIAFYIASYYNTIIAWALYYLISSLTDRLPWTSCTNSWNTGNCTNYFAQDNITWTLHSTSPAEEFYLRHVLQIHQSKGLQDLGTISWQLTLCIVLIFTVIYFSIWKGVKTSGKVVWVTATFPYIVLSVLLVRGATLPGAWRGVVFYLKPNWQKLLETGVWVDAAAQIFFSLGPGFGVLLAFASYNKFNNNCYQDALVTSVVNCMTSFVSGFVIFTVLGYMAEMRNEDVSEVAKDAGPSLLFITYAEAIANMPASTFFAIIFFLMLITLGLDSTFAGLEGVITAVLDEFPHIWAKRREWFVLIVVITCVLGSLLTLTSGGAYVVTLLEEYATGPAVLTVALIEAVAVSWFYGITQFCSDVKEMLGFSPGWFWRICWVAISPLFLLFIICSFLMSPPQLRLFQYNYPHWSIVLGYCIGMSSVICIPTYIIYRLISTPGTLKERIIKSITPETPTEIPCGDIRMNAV
The target in test [4] is T1, 5-hydroxytryptamine receptor 1A (Rattus norvegicus, UniProt P19327).
T1 sequence (P19327 whole entry): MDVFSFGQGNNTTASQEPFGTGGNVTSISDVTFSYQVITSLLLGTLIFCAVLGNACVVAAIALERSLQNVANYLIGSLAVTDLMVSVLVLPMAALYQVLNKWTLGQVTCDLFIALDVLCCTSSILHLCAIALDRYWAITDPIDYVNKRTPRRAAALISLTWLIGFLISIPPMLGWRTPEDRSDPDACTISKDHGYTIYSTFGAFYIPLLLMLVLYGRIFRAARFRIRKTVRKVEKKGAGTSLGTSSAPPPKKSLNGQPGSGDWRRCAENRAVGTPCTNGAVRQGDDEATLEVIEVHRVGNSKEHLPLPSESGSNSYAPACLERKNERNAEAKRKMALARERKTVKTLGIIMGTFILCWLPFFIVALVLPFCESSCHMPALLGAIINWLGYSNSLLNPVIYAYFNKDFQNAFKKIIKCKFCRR

Test [5] addresses T2, 5-hydroxytryptamine receptor 2C (Rattus norvegicus, UniProt P08909).
T2 sequence (P08909 whole entry): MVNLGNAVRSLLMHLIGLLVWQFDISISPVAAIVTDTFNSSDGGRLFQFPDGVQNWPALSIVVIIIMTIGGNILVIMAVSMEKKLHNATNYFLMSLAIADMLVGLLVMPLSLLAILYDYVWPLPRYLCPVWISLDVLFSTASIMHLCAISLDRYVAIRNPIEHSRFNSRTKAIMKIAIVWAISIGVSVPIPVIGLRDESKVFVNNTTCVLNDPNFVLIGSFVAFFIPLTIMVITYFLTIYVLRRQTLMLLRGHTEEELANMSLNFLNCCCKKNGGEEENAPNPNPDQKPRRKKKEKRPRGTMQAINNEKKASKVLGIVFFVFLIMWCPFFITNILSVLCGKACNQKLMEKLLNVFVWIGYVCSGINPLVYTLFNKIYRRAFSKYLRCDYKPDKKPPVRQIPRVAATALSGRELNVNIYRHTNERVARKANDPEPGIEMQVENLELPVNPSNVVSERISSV

For test [6], the target named is T3, 5-hydroxytryptamine receptor 3A (Rattus norvegicus, UniProt P35563).
T3 sequence (P35563 whole entry): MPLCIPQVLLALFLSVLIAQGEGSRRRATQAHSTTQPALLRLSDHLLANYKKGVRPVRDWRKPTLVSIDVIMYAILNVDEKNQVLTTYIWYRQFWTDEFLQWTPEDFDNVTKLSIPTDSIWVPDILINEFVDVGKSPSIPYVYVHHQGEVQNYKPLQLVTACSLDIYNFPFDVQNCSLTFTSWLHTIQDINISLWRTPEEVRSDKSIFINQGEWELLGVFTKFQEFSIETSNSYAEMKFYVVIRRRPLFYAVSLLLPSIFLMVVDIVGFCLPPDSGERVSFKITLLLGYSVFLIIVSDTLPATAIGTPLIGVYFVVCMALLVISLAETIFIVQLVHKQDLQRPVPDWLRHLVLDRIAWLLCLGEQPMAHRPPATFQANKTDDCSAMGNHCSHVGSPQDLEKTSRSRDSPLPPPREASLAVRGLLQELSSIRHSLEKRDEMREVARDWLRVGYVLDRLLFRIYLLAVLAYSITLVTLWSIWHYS

For test [7], the target named is 5-hydroxytryptamine receptor 6 (Rattus norvegicus, UniProt P31388).
Sequence of 5-hydroxytryptamine receptor 6 (P31388 whole entry): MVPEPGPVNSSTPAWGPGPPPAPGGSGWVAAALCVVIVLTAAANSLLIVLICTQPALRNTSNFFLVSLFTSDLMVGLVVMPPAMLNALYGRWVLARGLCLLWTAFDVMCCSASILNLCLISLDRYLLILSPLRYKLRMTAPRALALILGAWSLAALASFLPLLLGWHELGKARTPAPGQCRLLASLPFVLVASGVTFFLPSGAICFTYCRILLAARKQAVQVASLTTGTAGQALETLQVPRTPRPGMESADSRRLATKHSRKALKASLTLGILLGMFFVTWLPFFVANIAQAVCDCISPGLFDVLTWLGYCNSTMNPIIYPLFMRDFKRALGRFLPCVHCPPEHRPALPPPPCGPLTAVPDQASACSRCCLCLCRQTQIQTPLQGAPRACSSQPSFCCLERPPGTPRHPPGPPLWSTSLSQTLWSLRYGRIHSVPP
Test [8] addresses 5-hydroxytryptamine receptor 1B (Bos mutus, UniProt L8IGV0).

SMILES strings stand for the structures.

Sequence of 5-hydroxytryptamine receptor 7 (P32305 whole entry): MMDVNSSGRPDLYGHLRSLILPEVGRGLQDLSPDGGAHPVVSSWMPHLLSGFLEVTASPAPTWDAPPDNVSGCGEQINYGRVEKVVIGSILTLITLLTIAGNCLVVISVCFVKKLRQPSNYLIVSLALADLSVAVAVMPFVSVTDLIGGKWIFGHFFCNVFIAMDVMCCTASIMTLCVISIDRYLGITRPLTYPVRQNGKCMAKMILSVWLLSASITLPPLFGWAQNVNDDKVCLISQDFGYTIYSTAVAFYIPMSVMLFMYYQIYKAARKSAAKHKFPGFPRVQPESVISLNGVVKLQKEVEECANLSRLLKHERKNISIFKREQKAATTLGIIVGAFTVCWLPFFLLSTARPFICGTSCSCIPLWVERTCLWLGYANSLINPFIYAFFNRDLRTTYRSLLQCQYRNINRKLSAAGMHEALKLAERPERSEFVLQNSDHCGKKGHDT
Sequence of 5-hydroxytryptamine receptor 2A (P14842 whole entry): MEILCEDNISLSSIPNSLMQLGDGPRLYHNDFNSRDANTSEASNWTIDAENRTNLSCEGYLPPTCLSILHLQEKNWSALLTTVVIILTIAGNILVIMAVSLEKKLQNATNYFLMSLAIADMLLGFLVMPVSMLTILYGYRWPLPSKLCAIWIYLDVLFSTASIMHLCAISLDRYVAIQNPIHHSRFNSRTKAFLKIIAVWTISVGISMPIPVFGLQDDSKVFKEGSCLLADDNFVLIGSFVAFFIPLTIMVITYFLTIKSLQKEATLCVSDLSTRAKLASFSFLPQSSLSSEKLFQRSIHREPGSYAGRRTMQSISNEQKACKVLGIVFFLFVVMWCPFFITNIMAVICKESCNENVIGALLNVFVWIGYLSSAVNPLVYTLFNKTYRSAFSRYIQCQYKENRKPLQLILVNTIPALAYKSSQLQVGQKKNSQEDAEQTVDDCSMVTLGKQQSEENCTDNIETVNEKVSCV
Sequence of 5-hydroxytryptamine receptor 1B (L8IGV0 whole entry): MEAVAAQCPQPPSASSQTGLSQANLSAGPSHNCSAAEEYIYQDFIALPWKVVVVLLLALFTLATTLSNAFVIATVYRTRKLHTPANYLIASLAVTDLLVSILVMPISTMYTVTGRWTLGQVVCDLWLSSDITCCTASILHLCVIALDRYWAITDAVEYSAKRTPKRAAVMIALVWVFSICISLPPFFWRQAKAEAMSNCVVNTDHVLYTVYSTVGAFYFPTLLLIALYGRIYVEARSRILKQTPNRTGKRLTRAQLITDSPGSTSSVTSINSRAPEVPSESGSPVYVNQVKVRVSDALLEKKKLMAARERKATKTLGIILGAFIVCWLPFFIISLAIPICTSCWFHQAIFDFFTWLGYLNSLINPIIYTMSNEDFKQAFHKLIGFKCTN

As for `CCCN(C(C)C)[C@H]1COc2cccc(C(N)=O)c2C1` [(R)-3-[Isopropyl(propyl)amino]-3,4-dihydro-2H-1-benzopyran-5-carboxamide], the Ki in test [1] was 88 nM; in test [2] it was 1000 nM; in test [3], > 10000 nM; in test [4] it was 0.26 nM; in test [5] it was 500 nM; in test [6], 500 nM. For the same compound, the Ki in test [7] is > 10000 nM.
`CCCN(C(C)C)[C@H]1COc2cccc(C(=O)NC(C)C)c2C1` [(R)-N-Isopropyl-3-[isopropyl(propyl)amino]-3,4-dihydro-2H-1-benzopyran-5-carboxamide]: the inhibition constant Ki in test [1] was 240 nM; in test [2], > 10000 nM; in test [4] it was 4.5 nM; in test [5], 500 nM; in test [8], 1400 nM; in test [6], 500 nM. In test [7], the Ki is > 10000 nM.
